Measurements reported in doi:10.1101/2023.08.28.555062, “Discovery of 2-amide-3-methylester thiophenes that target SARS-CoV-2 Mac1 and repress coronavirus replication, validating Mac1 as an anti-viral target” (bioRxiv, 2023).
Entries after “also recorded” stand apart in the source; their conditions may differ. Like-named read-outs stand apart in the source and are kept apart here.

Tests used:
SARS-CoV-2 Mac1 [1] = biological target: T1, SARS-CoV-2 Mac1 (Severe acute respiratory syndrome coronavirus 2, UniProt P0DTD1); format: binding; conditions: 100 μM concentration; ± standard deviation of three replicates
PARP9 MD1 = PARP9 MD1 (Homo sapiens, UniProt Q8IXQ6); experiment: FRET profiling / potency against PARP9 MD1; format: binding
ALC1 = biological target: T2, ALC1 (Homo sapiens, UniProt Q86WJ1); experiment: FRET profiling / potency against ALC1 with YFP-GAP(PAR); format: binding; conditions: for inhibition at 1000 µM: read-out: maximum inhibition
T2 sequence (Q86WJ1 704-897 limits assumed): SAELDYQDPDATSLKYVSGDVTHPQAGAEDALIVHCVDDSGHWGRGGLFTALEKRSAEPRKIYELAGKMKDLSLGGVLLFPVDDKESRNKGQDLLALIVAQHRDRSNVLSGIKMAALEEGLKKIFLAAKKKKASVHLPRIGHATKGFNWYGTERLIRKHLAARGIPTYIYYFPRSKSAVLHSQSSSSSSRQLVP

SARS-CoV-2 Mac1 [2] = biological target: T1, SARS-CoV-2 Mac1; experiment: biochemical; format: binding; conditions: for drop in potency relative to 1: from IC50 values
human macrodomains = experiment: FRET profiling against panel of human macrodomains and ARH3; format: binding
viral macrodomains = experiment: FRET profiling against panel of other viral macrodomains; format: binding; conditions: up to 100 μM
SARS-CoV-2 = SARS-CoV-2 replication in Calu-3 cells with or without IFNγ, plaque assay; format: cell-based; conditions: 48 hpi
Protocol: Cells were infected with recombinant MHV-JHM or SARS-CoV-2 at a multiplicity of infection (MOI) of 0.1 PFU/cell with a 45–60 min adsorption phase, unless otherwise stated. Progeny cell-associated and cell-free virus was collected at indicated timepoints and viral titers were determined by plaque assay on Hela-MHVR (MHV) or Vero E6 (SARS-CoV-2) cells. All statistical analysis for viral infections was performed using GraphPad Prism software with an ordinary one-way ANOVA with a Dunnet’s test to correct for multiple comparisons to assess differences between treated and untreated samples. Graphs are expressed as means ± standard errors of the means. The n value represents the number of biological replicates for each group. Significant p values were denoted with asterisks. *, p≤0.05; **, p≤0.01, ***, p≤0.001, ****, p≤0.0001.

Calu-3 cells = experiment: MTT cell viability assay, Calu-3 cells; format: cell-based, human; conditions: 24 hours
Protocol: (§1) DBT, L929, and Calu-3 cells were treated with 27 for 24 hours. Cellular metabolic activity was assessed using a CyQUANT MTT Cell Proliferation Assay (Thermo Fisher Scientific) following manufacturer’s instructions.

[3] = biological target: macrodomains from SARS-CoV (Severe acute respiratory syndrome coronavirus, UniProt P0C6X7)
DBT cells = experiment: MTT cell viability assay, DBT cells; format: cell-based, mouse; conditions: 24 hours
Protocol: as §1

L929 cells = experiment: MTT cell viability assay, L929 cells; format: cell-based, mouse; conditions: 24 hours
Protocol: as §1

[4] = biological target: macrodomains from MERS-CoV (Middle East respiratory syndrome-related coronavirus, UniProt K9N7C7); experiment: biochemical; format: binding
[5] = IC50, FRET assay, SARS-CoV-2 Mac1, text and Fig. 1C
[6] = FRET assay, SARS-CoV-2 Mac1, text and Fig. 1C, read-out: IC50
[7] = FRET assay, SARS-CoV-2 Mac1, text and Fig. 1C
[8] = IC50 (pIC50 ± SEM): IC50, Table 2, synthesized analogs, n=3
[9] = Table 1, commercial analogs, n=3, given with negative sign, read-out: IC50 (pIC50 ± SEM): pIC50 ± SEM (converted)
[10] = Table 2, synthesized analogs, n=3, read-out: IC50 (pIC50 ± SEM): IC50 (converted)

macrodomains from MERS-CoV, sequence (K9N7C7 1110-1276 limits assumed): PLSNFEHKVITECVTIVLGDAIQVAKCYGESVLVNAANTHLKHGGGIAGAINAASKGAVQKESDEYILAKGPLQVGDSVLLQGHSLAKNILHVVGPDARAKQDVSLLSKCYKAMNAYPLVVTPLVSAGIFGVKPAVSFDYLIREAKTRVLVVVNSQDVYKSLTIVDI

Structure (SMILES): Nc1ncnc2c1ncn2[C@H]1O[C@@H](COP(=O)(O)OP(=O)(O)OC[C@H]2O[C@@H](O)[C@H](O)[C@@H]2O)[C@H](O)[C@@H]1O [ADP-ribose, reference compound]
- ΔTm (SARS-CoV-2 Mac1 [1]): 2.0 ± 0.14 °C

Structure (SMILES): COC(=O)c1c(NC(=O)C2CC=CCC2C(=O)O)sc2c1CCCCC2 (stereo not shown) [Compound 1, 6-{[3-(methoxycarbonyl)-5,6,7,8-tetrahydro-4H-cyclohepta[b]thiophen-2-yl]carbamoyl}cyclohex-3-ene-1-carboxylic acid]
- IC50 (PARP9 MD1): 64 µM
- inhibition at 100 µM (PARP9 MD1; 100 μM): ≥ 70%
- inhibition at 100 µM (ALC1): ≥ 50%
- IC50 (ALC1; partial inhibition only, read-out: IC50): 6.8 µM
- inhibition at 1000 µM (ALC1): 58%
- IC50 (SARS-CoV-2 Mac1 [2]; [5]): 14 µM
- inhibition of human macrodomains (human macrodomains; 10 μM and 100 μM): selective towards Mac1 over all human macrodomains
- inhibition of other tested viral macrodomains (viral macrodomains): did not show effective inhibition

Structure (SMILES): COC(=O)c1c(NC(=O)CCC(=O)O)sc2c1CCCCC2 [Compound 2]
- IC50 (SARS-CoV-2 Mac1 [2]; [6]): 48 µM
- drop in potency relative to 1 (SARS-CoV-2 Mac1 [2]): 3.5 fold
- ΔTm (SARS-CoV-2 Mac1 [1]): 0.3 ± 0.12 °C

Structure (SMILES): COC(=O)c1c(NC(=O)c2ccccc2C(=O)O)sc2c1CCCC2 [Compound 3, 2-{[3-(methoxycarbonyl)-4,5,6,7-tetrahydro-1-benzothiophen-2-yl]carbamoyl}benzoic acid]
- IC50 (SARS-CoV-2 Mac1 [2]; [6]): 110 µM
- drop in potency relative to 1 (SARS-CoV-2 Mac1 [2]): 7 fold
- ΔTm (SARS-CoV-2 Mac1 [1]): 0.7 ± 0.24 °C

Structure (SMILES): COC(=O)c1c(NC(=O)C2C3CCC(CC3)C2C(=O)O)sc2c1CCCC2 (stereo not shown) [Compound 12]
- IC50 (SARS-CoV-2 Mac1 [2]; [7]): completely abolished the inhibitory effect
- IC50 (SARS-CoV-2 Mac1 [2]; Table 1, commercial analogs, n=3, read-out: IC50 (pIC50 ± SEM): IC50 (converted)): > 100 µM

Structure (SMILES): COC(=O)c1c(NC(=O)C2CCCCC2C(=O)O)sc2c1CCCCC2 (stereo not shown) [Compound 15r, 2-{[3-(methoxycarbonyl)-4H,5H,6H,7H,8H-cyclohepta[b]thiophen-2-yl]carbamoyl}cyclohexane-1-carboxylic acid]
- IC50 (SARS-CoV-2 Mac1 [2]; [8]): 6.3 µM
- IC50 (SARS-CoV-2 Mac1 [2]; [5]): 6.5 µM

Structure (SMILES): COC(=O)c1c(NC(=O)C2CCCCC2C(=O)O)sc2c1CCC2 (stereo not shown) [Compound 16]
- IC50 (SARS-CoV-2 Mac1 [2]; [9]): 21.9 µM

Structure (SMILES): COC(=O)c1c(NC(=O)C2CCCCC2C(=O)O)sc2c1CCCC2 (stereo not shown) [Compound 17]
- IC50 (SARS-CoV-2 Mac1 [2]; [9]): 18.6 µM

Structure (SMILES): N#Cc1c(NC(=O)C2CC=CCC2C(=O)O)sc2c1CCCCC2 (stereo not shown) [Compound 21, 6-[(3-cyano-5,6,7,8-tetrahydro-4H-cyclohepta[b]thiophen-2-yl)carbamoyl]cyclohex-3-ene-1-carboxylic acid]
- IC50 (SARS-CoV-2 Mac1 [2]; [7]): inactive
- IC50 (SARS-CoV-2 Mac1 [2]; [10]): > 100 µM

Structure (SMILES): CC(=O)c1c(NC(=O)C2CC=CCC2C(=O)O)sc2c1CCCCC2 (stereo not shown) [Compound 22, 6-[(3-acetyl-5,6,7,8-tetrahydro-4H-cyclohepta[b]thiophen-2-yl)carbamoyl]cyclohex-3-ene-1-carboxylic acid]
- IC50 (SARS-CoV-2 Mac1 [2]; [7]): inactive
- IC50 (SARS-CoV-2 Mac1 [2]; [10]): > 100 µM

Structure (SMILES): COC(=O)c1c(NC(=O)C2CC=CCC2C(=O)OC)sc2c1CCCCC2 (stereo not shown) [Compound 23, Methyl 2-[6-(methoxycarbonyl)cyclohex-3-ene-1-amido]-4H,5H,6H,7H,8H-cyclohepta[b]thiophene-3-carboxylate]
- IC50 (SARS-CoV-2 Mac1 [2]; Table 2, synthesized analogs, n=3, given with negative sign, read-out: IC50 (pIC50 ± SEM): pIC50 ± SEM (converted)): 10.7 µM

Structure (SMILES): O=C(O)c1c(NC(=O)C2CCCCC2C(=O)O)sc2c1CCCCC2 (stereo not shown) [Compound 24, 2-[(2-carboxycyclohexane-1-carbonyl)amino]-5,6,7,8-tetrahydro-4H-cyclohepta[b]thiophene-3-carboxylic acid]
- IC50 (SARS-CoV-2 Mac1 [2]; [7]): without inhibitory activity
- IC50 (SARS-CoV-2 Mac1 [2]; [10]): > 100 µM

Structure (SMILES): COC(=O)c1c(NC(=O)[C@H]2CCCC[C@@H]2C(=O)O)sc2c1CCCCC2 [Compound 25, (1S,2S)-2-{[3-(methoxycarbonyl)-4H,5H,6H,7H,8H-cyclohepta[b]thiophen-2-yl]carbamoyl}cyclohexane-1-carboxylic acid]
- IC50 (SARS-CoV-2 Mac1 [2]; [8]): > 100 µM

Structure (SMILES): COC(=O)c1c(NC(=O)[C@@H]2CCCC[C@H]2C(=O)O)sc2c1CCCCC2 [Compound 26, (1R,2R)-2-{[3-(methoxycarbonyl)-4H,5H,6H,7H,8H-cyclohepta[b]thiophen-2-yl]carbamoyl}cyclohexane-1-carboxylic acid]
- IC50 (SARS-CoV-2 Mac1 [2]; [8]): 2.7 µM
- IC50 (SARS-CoV-2 Mac1 [2]; IC50 (pIC50 ± SEM): pIC50 ± SEM, Table 2, synthesized analogs, n=3, given with negative sign): 2.75 µM

Structure (SMILES): COC(=O)c1c(NC(=O)[C@@H]2CCCC[C@H]2C(=O)O)sc2c1CCCCCC2 [Compound 27, (1R,2R)-2-{[3-(methoxycarbonyl)-4H,5H,6H,7H,8H,9H-cycloocta[b]thiophen-2-yl]carbamoyl}cyclohexane-1-carboxylic acid]
- antiviral effect on SARS-CoV-2 (SARS-CoV-2; absence of IFNγ): minimal, if any, antiviral effects
- reduction in virus replication (SARS-CoV-2; presence of IFNγ (100 U/ml), 25 μM): 10–15 fold
- IC50 (ALC1): 3 µM
- inhibition at 10 µM (ALC1): ≥ 50%
- inhibition at 100 µM (ALC1): ≥ 50%
- inhibition at 1000 µM (ALC1): 63%
- cytotoxicity / viability (MTT) (Calu-3 cells): does not affect the viability; also recorded: did not lead to any cytotoxicity
- inhibition % [3]: 64%
- cytotoxicity / viability (MTT) (DBT cells): does not affect the viability; also recorded: did not have any cellular cytotoxicity
- cytotoxicity / viability (MTT) (L929 cells): does not affect the viability; also recorded: did not have any cellular cytotoxicity
- inhibition of human macrodomains (human macrodomains): did not show effective inhibition
- IC50 [4]: > 100 µM
- inhibition % [4]: 43%

Structure (SMILES): COC(=O)c1c(NC(=O)[C@@H]2CCCC[C@H]2C(=O)OC)sc2c1CCCCCC2 [Compound 28, Methyl 2-[(1R,2R)-2-(methoxycarbonyl)cyclohexaneamido]-4H,5H,6H,7H,8H,9H-cycloocta[b]thiophene-3-carboxylate]
- IC50 (SARS-CoV-2 Mac1 [2]; [7]): completely inactive
- IC50 (SARS-CoV-2 Mac1 [2]; [10]): > 100 µM
